Key:
human LPA1 = biological target: T1, human LPA1 (Homo sapiens, UniProt Q92633); assay: Antagonistic action on human LPA1: inhibition of LPA-stimulated increase in intracellular calcium ion concentration in human LPA1-CHO cells; assay type: cell-based; settings: LPA 100 nM, Fluo-4/FLIPR calcium signal
T1 construct: expressed in transfected cells
Procedure: Antagonistic Action of Compound of Formula (I) on Human LPA1
The antagonistic action on a human LPA 1 was evaluated with an index of an inhibitory action on the LPA-stimulated increase in intracellular calcium ion concentration, using human LPA 1-CHO cells [cells in which human LPA1 receptors are stably expressed in CHO (dhfr gene-deficient) cell lines].
Establishment of human LPA1-CHO cells was performed based on the basic genetic engineering techniques.
The established cells were maintained by passage in a nucleic acid-free α-MEM medium (Invitrogen) containing 10% FBS, 1% penicillin/streptomycin (Invitrogen), and 100 nM methotrexate, and before experiment, the medium was replaced with a medium that had been reduced to 1% of the […] concentration, then seeded in 96-well plates to 1.5×10e^5 cells/100 μL/well, and incubated overnight.
On the day of experiment, a 0.5 μM Fluo-4 solution [a solution prepared by adding 20 mM HEPES (Sigma), […] probenecid (Nacalai Tesque), 0.05% BSA, 0.5 μM Fluo-4 AM (Dojindo Laboratories), and 0.1% Pluronic […] (Molecular Probe Co.) to a Hanks Balanced Solt Solution (Invitrogen)] was added to the cells, and Fluo-4 was loaded on the cells by incubating for 2 hours at room temperature.
After loading Fluo-4, the Fluo-4 solution was replaced with a reaction solution [a solution obtained by adding 20 mM HEPES, […] probenecid, and 0.05% BSA to a Hanks Balanced Solt Solution], and then measurement was performed using a device for measuring an intracellular calcium concentration (FLIPR tetra, Molecular Devices Inc.).
A reaction solution in which the compound of the formula (I) (with a final concentration of 0.1 nM to 10 μM) had been dissolved was added to each of the wells, the signals were measured over time for 4 minutes, then a reaction solution in which LPA (final concentration 100 nM) had been dissolved was added thereto, and the signals were measured over time for 2 minutes. The difference between the maximum and minimum response during one minute from addition of LPA was calculated. The inhibitory activity was calculated, with a response when LPA only (not including the compound) was added was taken as 0% inhibition, and a response when a reaction solution not including both of the compound and LPA was added was taken as 100% inhibition. Then the 50% inhibitory concentration was calculated as an IC50 value (nM).
Human LPA1-CHO cells used in the present test were the cells with the same sequence as described in the pamphlet of International Publication WO 99/19513 were used. Further, Ex represents Example No. as denoted below.

[1] = system: LPA-induced increase in urethral pressure; assay: Inhibitory action on LPA-induced increase in urethral pressure in rats under anesthesia; assay type: in vivo, rat (male Wistar); settings: Rattus norvegicus, 5 min; 0.1 mg/kg intravenous, LPA (1-oleoyl) 3 mg/kg iv after 5 minutes, anesthetized rats, vs solvent; read-out: Inhibitory rate
Procedure: Inhibitory Action of Compound of Formula (I) on LPA-Induced Increase in Urethral Pressure in Rats Under Anesthesia (with Intravenous Administration at 0.1 mg/kg) Male Wistar rats (Charles River, 9- to 12-week old) were anesthetized with urethane (1.2 g/kg ip), and held in the supine position on an operating table kept at 37° C. The lower abdominal portion was midline-incised and the bladder was thus exposed. A small portion of the bladder apex was incised, a microchip pressure transducer (Millar) was inserted antegrade, and then placed in the urethra, and the urethral pressure was recorded continuously. In addition, a cannula for administration of a drug was placed into the femoral vein. After about 1 hour of stabilization, the compound of formula (I) (0.1 mg/kg) was administered intravenously. After 5 minutes, LPA (1-oleoyl) was administered intravenously at 3 mg/kg, and the changes in the urethral pressure were recorded. The inhibitory rates (%) of the compound of the formula (I) on the LPA-stimulated increase in the urethral pressure compared with those after administration of the solvent of the compound of the formula (I) were recorded.

T1 sequence (Q92633 whole entry): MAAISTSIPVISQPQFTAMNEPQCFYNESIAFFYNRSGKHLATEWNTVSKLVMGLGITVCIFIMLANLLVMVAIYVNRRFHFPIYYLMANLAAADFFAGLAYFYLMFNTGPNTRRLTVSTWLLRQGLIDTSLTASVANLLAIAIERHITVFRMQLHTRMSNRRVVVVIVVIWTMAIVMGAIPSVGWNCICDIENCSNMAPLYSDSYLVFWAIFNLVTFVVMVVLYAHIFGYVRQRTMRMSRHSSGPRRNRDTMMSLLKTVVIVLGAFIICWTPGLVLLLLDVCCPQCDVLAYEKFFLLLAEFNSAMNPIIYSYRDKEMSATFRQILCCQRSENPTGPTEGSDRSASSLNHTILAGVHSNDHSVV

SMILES	melting point	IC50 (human LPA1)	inhibition in vivo at 0.1 mg/kg [1]
CCNS(=O)(=O)[N-]C(=O)c1csc(CN(CCCc2ccccc2)C(=O)c2cc(OC)c(C)c(OC)c2)n1.[K+]	203 to 205 °C		
COc1ccc(C2(C(=O)N(CCCc3cccc(F)c3)Cc3nc(C(=O)[N-]S(=O)(=O)N(C)C)c(C)s3)CC2)nc1.[K+]	219 to 221 °C		
COc1cc(C(=O)N(CCCc2ccccc2)Cc2nc(C(=O)NS(=O)(=O)c3cccs3)cs2)cc(OC)c1C [Example 5, 2-{[(3,5-dimethoxy-4-methylbenzoyl)(3-phenylpropyl)amino]methyl}-N-(2-thienylsulfonyl)-1,3-thiazole-4-carboxamide]		7.8 nM	
COc1ccc(C(O)C(=O)N(CCCc2ccccc2)Cc2nc(C(=O)NS(=O)(=O)N(C)C)c(C)s2)cn1 (stereo not drawn) [Example 28]	178 to 179 °C		
COc1ccc(C2(C(=O)N(CCCc3ccccc3)Cc3nc(C(=O)NS(=O)(=O)N(C)C)c(C)s3)CC2)nc1 [Example 31]	125 to 126 °C		
COc1cc(C(=O)N(CCCc2ccccc2)Cc2csc(C(=O)NS(N)(=O)=O)n2)cc(OC)c1C [Example 62]	173 to 175 °C	11 nM	
CNS(=O)(=O)NC(=O)c1nc(CN(CCCc2ccccc2)C(=O)c2cc(OC)c(C)c(OC)c2)cs1 [Example 63]			28%
COc1cc(C(=O)N(CCCc2ccccc2)Cc2nc(C(=O)NS(N)(=O)=O)cs2)cc(OC)c1C [Example 69]	147 to 150 °C	8.8 nM	33%
COc1cc(C(=O)N(CCCc2ccccc2)Cc2nc(C(=O)NS(=O)(=O)Nc3ccccn3)cs2)cc(OC)c1C [Example 79]		16 nM	
COc1cc(C(=O)N(CCCc2ccccc2)Cc2nc(C(=O)NS(C)(=O)=O)cs2)cc(OC)c1C [Example 108]	133 to 134 °C	11 nM	
COc1cc(C(=O)N(CCCc2ccccc2)Cc2nc(C(=O)NS(C)(=O)=O)c(C)s2)cc(OC)c1C [Example 109]	128 to 131 °C	22 nM	
COc1cc(C(=O)N(CCCc2ccc(Cl)s2)Cc2nc(C(=O)NS(N)(=O)=O)cs2)cc(OC)c1C [Example 110]	154 to 156 °C	11 nM	
COc1cc(C(=O)N(CCCc2ccc(C)o2)Cc2nc(C(=O)NS(N)(=O)=O)cs2)cc(OC)c1C [Example 111]		6.6 nM	56%
COc1cc(C(=O)N(CCCc2ccccc2F)Cc2nc(C(=O)NS(N)(=O)=O)cs2)cc(OC)c1C [Example 113]	145 to 146 °C	12 nM	
COc1cc(C(=O)N(CCCc2cc(F)ccc2F)Cc2nc(C(=O)NS(N)(=O)=O)cs2)cc(OC)c1C [Example 115]		16 nM	
COc1cc(C(=O)N(CCCc2ccccc2F)Cc2nc(C(=O)NS(=O)(=O)N(C)C)cs2)cc(OC)c1C [Example 119]	128 to 131 °C		
COc1cc(C(=O)N(CCCc2ccccc2)Cc2nc(C(=O)NS(N)(=O)=O)co2)cc(OC)c1C [Example 121]	136 to 141 °C	19 nM	
COc1cc(C(=O)N(CCCc2ccccc2)Cc2ccc(C(=O)NS(N)(=O)=O)o2)cc(OC)c1C [Example 123]		7.5 nM	39%
C=Cc1c(OC)cc(C(=O)N(CCCc2ccccc2)Cc2nc(C(=O)NS(N)(=O)=O)cs2)cc1OC [Example 130]			39%
COc1cc(C(=O)N(CCCc2ccccc2)Cc2nc(C(=O)NS(N)(=O)=O)cs2)cc(OC)c1C1CC1 [Example 131]	147 to 149 °C	7.2 nM	38%

SMILES	melting point	IC50 (human LPA1)	inhibition in vivo at 0.1 mg/kg [1]
COc1cc(C(=O)N(CCCc2ccccc2)Cc2nc(C(=O)NS(N)(=O)=O)cs2)cc(OC)c1Br [Example 132]			42%
CNS(=O)(=O)NC(=O)c1csc(CN(CCCc2ccsc2)C(=O)c2cc(OC)c(C)c(OC)c2)n1 [Example 137]		9.9 nM	17%
Cc1cc(C(=O)N(CCCc2ccccc2)Cc2nc(C(=O)NS(N)(=O)=O)c(Cl)s2)cc(C)c1O [Example 147]		16 nM	
COCc1c(OC)cc(C(=O)N(CCCc2ccccc2)Cc2nc(C(=O)NS(=O)(=O)NOC)c(C)s2)cc1OC [Example 161]	151 to 153 °C		
CNS(=O)(=O)NC(=O)c1nc(CN(CCCc2ccccc2)C(=O)c2cc(OC)c(Cl)c(OC)c2)sc1Cl [Example 162]			21%
COc1cc(C(=O)N(CCCc2ccccc2)Cc2nc(C(=O)NS(=O)(=O)CCO)cs2)cc(OC)c1C [Example 167]		12 nM	35%
COc1cc(C(=O)N(CCCc2ccccc2)Cc2nc(C(=O)NS(=O)(=O)NC(C)=O)cs2)cc(OC)c1C [Example 168, N-(acetylsulfamoyl)-2-{[(3,5-dimethoxy-4-methylbenzoyl)(3-phenylpropyl)amino]methyl}-1,3-thiazole-4-carboxamide]		17 nM	
COc1cc(C(=O)N(CCCc2ccccc2)Cc2nc(C(=O)NS(=O)(=O)CC(C)O)cs2)cc(OC)c1C (stereo not drawn) [Example 175]		23 nM	
COc1ccc(C2(C(=O)N(CCCc3ccc(C)o3)Cc3nc(C(=O)NS(=O)(=O)N(C)C)c(C)s3)CC2)nc1 [Example 200]		33 nM	31%
COc1ccc(C2(C(=O)N(CCCc3cccc(F)c3)Cc3nc(C(=O)NS(=O)(=O)N(C)C)c(C)s3)CC2)nc1 [Example 208]	114 to 115 °C	40 nM	14%
COc1ccc(C2(C(=O)N(CCCc3ccco3)Cc3nc(C(=O)NS(=O)(=O)N(C)C)c(C)s3)CC2)nc1 [Example 221]	112 to 113 °C		
COc1ccc(C2(C(=O)N(CCCc3ccco3)Cc3nc(C(=O)NS(=O)(=O)N(C)C)c(C)s3)CC2)cc1 [Example 233]		22 nM	38%
COc1ccc([C@@H](O)C(=O)N(CCCc2cccs2)Cc2nc(C(=O)NS(=O)(=O)N(C)C)c(C)s2)cc1 [Example 256]	118 to 120 °C		
CCS(=O)(=O)NC(=O)c1nc(CN(CCCc2ccccc2)C(=O)[C@H](O)c2ccc(OC)cc2)sc1C [Example 266]	123 to 125 °C	65 nM	15%
CCS(=O)(=O)NC(=O)c1nc(CN(CCCc2cccs2)C(=O)[C@H](O)c2ccc(OC)cc2)sc1C [Example 272]	124 to 126 °C	44 nM	
COc1ccc([C@@H](O)C(=O)N(CCCc2ccccc2)Cc2nc(C(=O)NS(C)(=O)=O)c(C)s2)c(F)c1 [Example 277]	121 to 123 °C	12 nM	42%
CCS(=O)(=O)NC(=O)c1nc(CN(CCCc2ccccc2)C(=O)[C@H](O)c2ccc(OC)cc2F)sc1C [Example 278]	111 to 112 °C		
CNS(=O)(=O)NC(=O)c1nc(CN(CCCc2cccs2)C(=O)[C@H](O)c2ccc(OC)cc2)sc1C [Example 283]	106 to 109 °C	29 nM	
COc1ccc([C@@H](O)C(=O)N(CCCc2ccccc2)Cc2nc(C(=O)NS(=O)(=O)C(C)C)c(C)s2)cc1 [Example 285]	137 to 138 °C	32 nM	
COc1ccc([C@@H](O)C(=O)N(CCCc2ccccc2)Cc2nc(C(=O)NS(=O)(=O)N(C)C)c(C)s2)cc1 [Example 290]	110 to 112 °C	33 nM	

From patent US8669246B2, “Substituted amide compound” (Astellas Pharma Inc., priority 2009, dated 2014)
